Experimental findings from patent publication US12187728B2 (Raze Therapeutics, Inc., priority 2015, dated 2025) are described below.

In general, pIC50 refers to the IC50 on a negative log10 scale, so that one unit is a factor of ten.

pIC50: −log10 of the molar value.

The target in this assay is T1, Human MTHFD2 (Homo sapiens, UniProt P13995).
T1 construct: residues 36-350 in Uniport ID P13995; His6 (N); made in house; host or cells: E. coli
T1 sequence (P13995 36-350): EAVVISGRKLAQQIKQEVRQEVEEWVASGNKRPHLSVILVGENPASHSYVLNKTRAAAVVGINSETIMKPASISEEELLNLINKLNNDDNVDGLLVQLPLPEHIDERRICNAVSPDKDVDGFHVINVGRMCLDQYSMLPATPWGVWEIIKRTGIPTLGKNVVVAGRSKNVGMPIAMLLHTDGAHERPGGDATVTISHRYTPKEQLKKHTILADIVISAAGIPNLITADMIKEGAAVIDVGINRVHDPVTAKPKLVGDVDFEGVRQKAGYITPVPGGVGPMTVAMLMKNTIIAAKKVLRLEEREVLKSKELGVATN
Kind of assay: MTHFD2 Activity Assay (dehydrogenase activity, diaphorase/resazurin coupled fluorescence). Particulars: inhibitory activity (IC50 and/or binding constant); 0.2 nM MTHFD2, 11 concentrations. Type of assay: biochemical. The procedure, abridged:
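Resorufin fluorescence (ex 525, em 598 nm) reports NADH formed by the dehydrogenase via diaphorase coupling. Enzyme (0.2 nM, residues 36-350, N-His6) sat with compound 15 min before 70 μM CH2-THF and 1 mM NAD+ started a 30 min reaction. IC50s come from 4-parameter fits over 11 concentrations.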
In general terms: Alamar Blue is a resazurin reagent that responds to reducing activity.
For `Cn1c(Nc2ccncc2)nc2c1c(=O)n(Cc1cc3c(Br)cccc3[nH]1)c(=O)n2C` [Example 348, 1-((4-bromo-1H-indol-2-yl)methyl)-3,7-dimethyl-8-(pyridin-4-ylamino)-1H-purine-2, 6(3H,7H)-dione], the pIC50 is 5.00 to 5.30.
In turn, `CN(C)C(=O)CCc1cccc(Nc2nc3c(c(=O)n(Cc4cc5c(Cl)cccc5[nH]4)c(=O)n3C)n2C)n1` [Example 329, 3-(6-(1-((4-chloro-1H-indol-2-yl)methyl)-3,7-dimethyl-2,6-dioxo-2,3,6,7-tetrahydro-1H-purin-8-ylamino)pyridin-2-yl)-N,N-dimethylpropanamide] gave a pIC50 of 6.00 to 8.00.
In turn, `COc1ccc2[nH]c(Cn3c(=O)c4c(ncn4C)n(C)c3=O)cc2c1` [Example 239, 1-((5-methoxy-1H-indol-2-yl)methyl)-3,7-dimethyl-1H-purine-2,6(3H,7H)-dione] had a pIC50 of 5.30 to 6.00.
In the case of `Cn1c(NC2CCNC2=O)nc2c1c(=O)n(Cc1ccc(Cl)c(Cl)c1)c(=O)n2C` (centres unmarked) [Example 86, 1-[(3,4-dichlorophenyl)methyl]-3,7-dimethyl-8-[(2-oxopyrrolidin-3-yl)amino]-2,3,6,7-tetrahydro-1H-purine-2,6-dione], the pIC50 was 6.00 to 8.00.
Turning to `Cn1c(Nc2ccnc([C@H]3C[C@@H]3CO)c2)nc2c1c(=O)n(Cc1ccc(Cl)c(Cl)c1)c(=O)n2C` (racemic) [Example 284, (±)-trans-1-(3,4-dichlorobenzyl)-8-((2-(2-(hydroxymethyl)cyclopropyl)pyridin-4-yl)amino)-3,7-dimethyl-1H-purine-2,6(3H,7H)-dione], the pIC50 is 6.00 to 8.00.
Under `Cn1c(Nc2ccnc(CNC(=O)CN)n2)nc2c1c(=O)n(Cc1cc3c(Cl)cccc3[nH]1)c(=O)n2C` [Example 440, 2-amino-N-((4-(1((4-chloro-1H-indol-2-yl)methyl)-3,7-dimethyl-2,6-dioxo-2,3,6,7-tetrahydro-1H-purin-8-ylamino)pyrimidin-2-yl)methyl)acetamide] stands 6.00 to 8.00; under `Cn1c(N[C@H]2CC[C@@H](O)C2)nc2c1c(=O)n(Cc1nc3ccccc3[nH]1)c(=O)n2C` [Example 99, 1-((1H-benzo[d]imidazol-2-yl)methyl)-8-((1S,3R)-3-hydroxycyclopentylamino)-3,7-dimethyl-1H-purine-2,6(3H,7H)-dione], 5.30 to 6.00; under `Cn1c(Nc2ccncc2)nc2c1c(=O)n(Cc1cc3ccccc3[nH]1)c(=O)n2C` [Example 174, 1-((1H-indol-2-yl)methyl)-3,7-dimethyl-8-(pyridin-4-ylamino)-1H-purine-2,6(3H,7H)-dione], 6.00 to 8.00.
On to `Cn1c(Nc2cccc(C(=O)O)c2)nc2c1c(=O)n(Cc1cc3c(Cl)cccc3[nH]1)c(=O)n2C` [Example 346, 3-[[1-[(4-chloro-1H-indol-2-yl)methyl]-3,7-dimethyl-2,6-dioxo-purin-8-yl]amino]benzoic acid], for which the pIC50 is 6.00 to 8.00.
The compound `Cn1c(Nc2ccncc2)nc2c1c(=O)n(Cc1cc3c(-c4ccccc4)cccc3[nH]1)c(=O)n2C` [Example 374, 3,7-dimethyl-1-((4-phenyl-1H-indol-2-yl)methyl)-8-(pyridin-4-ylamino)-1H-purine-2,6(3H,7H)-dione] had a pIC50 below 5.00.
For `Cn1c(Nc2ccnc([C@H]3C[C@H]3C(=O)O)c2)nc2c1c(=O)n(Cc1cc3c(Cl)cccc3[nH]1)c(=O)n2C` (racemic) [Example 368, (±)-cis-2-(4-((1-((4-chloro-1H-indol-2-yl)methyl)-3,7-dimethyl-2,6-dioxo-2,3,6,7-tetrahydro-1H-purin-8-yl)amino)pyridin-2-yl)cyclopropanecarboxylic acid], the pIC50 was 6.00 to 8.00.
For the compound `Cn1c(N[C@H]2CC[C@@H](N)CC2)nc2c1c(=O)n(Cc1ccc(Cl)c(Cl)c1)c(=O)n2C` [Example 39, (±)-1-[(3,4-dichlorophenyl)methyl]-3,7-dimethyl-8-{[(cis)-4-aminocyclohexyl]amino}-2,3,6,7-tetrahydro-1H-purine-2,6-dione], the pIC50 was 5.30 to 6.00.
For the compound `Cn1c(Nc2ccc(C(N)=O)cc2)nc2c1c(=O)n(Cc1cc3c(Cl)cccc3[nH]1)c(=O)n2C` [Example 420, 4-[[1-[(4-chloro-1H-indol-2-yl)methyl]-3,7-dimethyl-2,6-dioxo-purin-8-yl]amino]benzamide], the pIC50 is 6.00 to 8.00.
As for `Cn1c(N[C@H]2CCC[C@@H]2O)nc2c1c(=O)n(Cc1cc3c(Cl)cccc3[nH]1)c(=O)n2C` [Example 403, 1-((4-chloro-1H-indol-2-yl)methyl)-8-((1S,2S)-2-hydroxycyclopentylamino)-3,7-dimethyl-1H-purine-2,6(3H,7H)-dione], the figure is 6.00 to 8.00; as for `Cn1c(Nc2ccncc2)nc2c1c(=O)n(Cc1cc3c(C#N)cccc3[nH]1)c(=O)n2C` [Example 350, 2-((3,7-dimethyl-2,6-dioxo-8-(pyridin-4-ylamino)-2,3,6,7-tetrahydro-1H-purin-1-yl)methyl)-1H-indole-4-carbonitrile], 5.00 to 5.30; as for `Cn1c(=O)n(Cc2cc3c(Cl)cccc3[nH]2)c(=O)c2c1nc(NC1CCCC(C(=O)O)C1)n2CCN` (centres unmarked) [Example 418, 3-(7-(2-aminoethyl)-1-((4-chloro-1H-indol-2-yl)methyl)-3-methyl-2,6-dioxo-2,3,6,7-tetrahydro-1H-purin-8-ylamino)cyclohexanecarboxylic acid], 6.00 to 8.00.
As for `Cn1c(N[C@H]2CCC[C@H]2N)nc2c1c(=O)n(Cc1cc3c(Cl)cccc3[nH]1)c(=O)n2C` [Example 439, 8-((1S,2R)-2-aminocyclopentylamino)-1-((4-chloro-1H-indol-2-yl)methyl)-3,7-dimethyl-1H-purine-2,6(3H,7H)-dione], the figure is 6.00 to 8.00.
As for `Cn1c(NC[C@@H]2CCCO2)nc2c1c(=O)n(Cc1ccc(C(F)(F)F)cc1)c(=O)n2C` [Example 105, (S)-3,7-dimethyl-8-((tetrahydrofuran-2-yl)methylamino)-1-(4-(trifluoromethyl)benzyl)-1H-purine-2,6(3H,7H)-dione], the figure is below 5.00; as for `C[C@H](O)CNc1nc2c(c(=O)n(Cc3ccc(F)c(F)c3)c(=O)n2C)n1C` [Example 30, 1-[(3,4-difluorophenyl)methyl]-8-{[(2S)-2-hydroxypropyl]amino}-3,7-dimethyl-2,3,6,7-tetrahydro-1H-purine-2,6-dione], below 5.00.
As to `Cn1c(Nc2cccc(C3CC(O)C3)n2)nc2c1c(=O)n(Cc1ccc(Cl)c(Cl)c1)c(=O)n2C` (centres unmarked) [Example 352, 1-(3,4-diclorobenzyl)-8-(6-(3-hydroxycyclobutyl)pyridine-2-ylamino)-3,7-dimethyl-1H-purine-2,6(3H,7H)-dione], the pIC50 was 5.30 to 6.00.
As for `Cn1c(Cn2c(=O)c3c(nc(N4CC(O)C4)n3C)n(C)c2=O)cc2cc(Cl)ccc21` [Example 197, 1-((5-chloro-1-methyl-1H-indol-2-yl)methyl)-8-(3-hydroxyazetidin-1-yl)-3,7-dimethyl-1H-purine-2,6(3H,7H)-dione], the pIC50 was 6.00 to 8.00.
In the case of `Cn1c(Nc2ccncc2)nc2c1c(=O)n(Cc1cc3ccc(Cl)cc3[nH]1)c(=O)n2C` [Example 312, 1-((6-chloro-1H-indol-2-yl)methyl)-3,7-dimethyl-8-(pyridin-4-ylamino)-1H-purine-2,6(3H,7H)-dione], the pIC50 was 6.00 to 8.00.
Take `Cn1c(NCC2(O)CCCCC2)nc2c1c(=O)n(Cc1ccc(C(F)(F)F)cc1)c(=O)n2C` [Example 107, 8-((1-hydroxycyclohexyl)methylamino)-3,7-dimethyl-1-(4-(trifluoromethyl)benzyl)-1H-purine-2,6(3H,7H)-dione]: the pIC50 is below 5.00.
The compound `COc1ccc(Cn2c(=O)c3c(nc(NC[C@H](C)O)n3C)n(C)c2=O)cc1` [Example 34, 8-{[(2S)-2-hydroxypropyl]amino}-1-[(4-methoxyphenyl)methyl]-3,7-dimethyl-2,3,6,7-tetrahydro-1H-purine-2,6-dione] showed a pIC50 below 5.00.
As for `CC(=O)Nc1nc2c(c(=O)n(Cc3ccc(Cl)c(Cl)c3)c(=O)n2C)n1C` [Example 274, N-[1-[(3,4-dichlorophenyl)methyl]-3,7-dimethyl-2,6-dioxo-purin-8-yl]acetamide], the figure is 5.30 to 6.00.
For `C[C@H](CCO)Nc1nc2c(c(=O)n(Cc3ccc(Cl)c(Cl)c3)c(=O)n2C)n1C` [Example 27, 1-[(3,4-dichlorophenyl)methyl]-8-{[(2R)-4-hydroxybutan-2-yl]amino}-3,7-dimethyl-2,3,6,7-tetrahydro-1H-purine-2,6-dione], the pIC50 is 6.00 to 8.00.
The compound `Cn1c(N[C@H]2CCC[C@H]2O)nc2c1c(=O)n(Cc1cc3c(Cl)cccc3[nH]1)c(=O)n2C` [Example 347, 1-((4-chloro-1H-indol-2-yl)methyl)-8-((1S,2R)-2-hydroxycyclopentylamino)-3,7-dimethyl-1H-purine-2,6(3H,7H)-dione] gave a pIC50 of 6.00 to 8.00.
As for `Cn1c(NCC(=O)O)nc2c1c(=O)n(Cc1ccc(Cl)c(Cl)c1)c(=O)n2C` [Example 134, 2-(1-(3,4-dichlorobenzyl)-3,7-dimethyl-2,6-dioxo-2,3,6,7-tetrahydro-1H-purin-8-ylamino)acetic acid], the figure is 5.30 to 6.00; as for `Cn1c(NC2(C(=O)O)CC2)nc2c1c(=O)n(Cc1ccc(Cl)c(Cl)c1)c(=O)n2C` [Example 147, 1-(1-(3,4-dichlorobenzyl)-3,7-dimethyl-2,6-dioxo-2,3,6,7-tetrahydro-1H-purin-8-ylamino)cyclopropanecarboxylic acid], 6.00 to 8.00.
